Values of other authors, collected in patent publication US5952465A, “Polypeptides that include conformation-constraining groups which flank a protein-protein interaction site” (Virginia Commonwealth University, priority 1998, dated 1999).
Where a SMILES comes first, the peptide text is derived from it.

Test system: receptors of sweet tasting papillae
Settings: comparison substance

Sweetness relative to sugar: 160 times sweeter than sugar
SMILES: COC(=O)[C@H](Cc1ccccc1)NC(=O)[C@@H](N)CC(=O)O [aspartame] (H-Asp-Phe-OMe)
